22 molecules from patent US20120184542A1, “PYRIDO PYRIMIDINES” (priority 2011, published 2012) can be followed below.

The target in one test is T1, Human DYRK1B (Homo sapiens, UniProt Q9Y463).
T1 construct: purchased Invitrogen PR8350B (former PV4649)
As to the kind of experiment: DYRK1B Kinase TR-FRET (IMAP-Tb) Assay. In kind it is biochemical. The conditions noted are these: TR-FRET (IMAP-Tb), ATP 70 μM, 37° C. 60 minutes.

Another test has as its target T2, Human DYRK1A (Homo sapiens, UniProt Q13627).
T2 construct: purchased Invitrogen PV3997
Description: DYRK1A Kinase TR-FRET (IMAP-Tb) Assay. The conditions noted are these: for IC50: TR-FRET (IMAP-Tb), ATP 70 μM, 37° C. 60 minutes, read-out: Enzyme IC50 (μM) DYRK1A. In kind it is biochemical. The text has this: The kinase TR-FRET (IMAP-Tb) assay uses a fluorescence labeled substrate peptide in the kinase reaction. Upon phosphorylation by the kinase, phosphopeptide is produced, which will be detected by the binding solution provided in IMAP TR-FRET binding kit. After the completion of the kinase reaction, the reaction will be stopped by adding the binding solution containing terbium tracer. This tracer is immobilized on the surface of the IMAP beads, which also contain metal ions on the beads that bind to the phospho-groups of the products. Thus the phosphorylated product of the reaction can enter into close proximity to the tracer, producing resonance energy transfer. Due to the long lifetime of terbium (Tb) fluorescence the detection can be run in time resolved mode, which virtually eliminates fluorescence interference from assay components or compounds.
The TR-FRET signal measurement from this assay, given as an IC50 measurement, is a measure of a test compound's ability to interfere with the phosphorylation of the peptide substrate, that is it inhibits the phosphorylation of the substrate peptide by DYRK1A, and is thus a measure of the test compound's ability to inhibit the activity of DYRK1A.
• 1. Human DYRK1A: from Invitrogen. Part #PV3997 • 2. Substrate Peptide: […] • 3. IMAP TR-FRET IPP Explorer Kit: from Molecular Devices. Part #R8157 • 4. Kinase Assay Buffer (KAB): 10 mM HEPES pH 7.0, 50 mM NaCl, 5 mM MgCl2, 1 mM DTT, 1 mM NaVO4, 200 μg/mL BSA (0.02%) • 5. Assay Plate: Remp polypropylene clear 384-well microplate. […] Detection Plate: Costa black 384-well microplate.
• 1. Transfer 1.5 μL of 20× compound solution to each well of an assay plate. • 2. Add to each well 22.5 μL of KAB Buffer. • 3. Add to each well 3 μL of the solution of DYRK1A and ATP. […] Add to each well 3 μL of the substrate peptide. The assay concentration is 1.0 μM • 5. Incubate the assay plates at 37° C. for 60 minutes. • 6. Add 18 μL of Detection Solution (1:800 diluted Progress bead stock, 1:400 diluted Tb stock, 80% Buffer A, and 20% Buffer B) into each well of detection plates. • 7. Transfer 6 μL of assay solution from the assay plate to the detection plate. • 8. Shake detection plates for 30 minutes. • 9. Read plates in Envision with wavelength set at excitation 340 nm for Tb, emission 490 nm, and […].

Setting [1] is: read-out: Enzyme IC50 (μM) DYRK1B.

The structures appear in SMILES notation. Counter-ions that a name gives are not always drawn. Like-named read-outs stand apart in the source and are kept apart here. Some results are limits rather than exact numbers.

T1 sequence (Q9Y463 whole entry): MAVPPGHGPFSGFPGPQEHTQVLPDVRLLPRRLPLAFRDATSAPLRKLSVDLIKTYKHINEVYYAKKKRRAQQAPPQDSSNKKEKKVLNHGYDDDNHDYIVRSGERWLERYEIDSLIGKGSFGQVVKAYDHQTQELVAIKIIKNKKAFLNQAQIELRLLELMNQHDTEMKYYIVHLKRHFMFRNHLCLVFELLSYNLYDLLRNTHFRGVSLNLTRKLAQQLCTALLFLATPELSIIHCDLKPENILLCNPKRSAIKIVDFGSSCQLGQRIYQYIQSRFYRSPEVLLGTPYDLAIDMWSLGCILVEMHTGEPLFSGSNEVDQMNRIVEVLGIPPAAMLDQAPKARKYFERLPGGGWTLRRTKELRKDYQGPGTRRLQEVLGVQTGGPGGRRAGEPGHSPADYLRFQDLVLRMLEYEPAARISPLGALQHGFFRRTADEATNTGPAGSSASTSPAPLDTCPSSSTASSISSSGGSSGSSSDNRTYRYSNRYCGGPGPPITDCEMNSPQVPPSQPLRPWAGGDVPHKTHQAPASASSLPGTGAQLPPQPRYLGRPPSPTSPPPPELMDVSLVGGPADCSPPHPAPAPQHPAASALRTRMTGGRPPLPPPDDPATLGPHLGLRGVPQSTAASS

`COc1ncc2cc(C(=O)Nc3cc(C(=O)NCCc4cccc(Cl)c4)ccc3Cl)c(=O)[nH]c2n1` [Example 71, 2-Methoxy-7-oxo-7,8-dihydro-pyrido[2,3-d]pyrimidine-6-carboxylic acid {2-chloro-5-[2-(3-chloro-phenyl)-ethylcarbamoyl]-phenyl}-amide] returned an IC50 against Human DYRK1B (Enzyme IC50 (μM) DYRK1B) of 0.135 µM. In turn, `COc1ncc2cc(C(=O)Nc3cc(C(=O)NC(CCCN)c4ccccc4)ccc3Cl)c(=O)[nH]c2n1` (stereo not drawn) [Example 189, N-(5-(4-Amino-1-phenylbutylcarbamoyl)-2-chlorophenyl)-2-methoxy-7-oxo-7,8-dihydropyrido[2,3-d]pyrimidine-6-carboxamide] registered a half-maximal inhibitory concentration (IC50) on Human DYRK1B (Enzyme IC50 (μM) DYRK1B) of 0.0214 µM. As for `COc1ncc2cc(C(=O)Nc3cc(C(=O)NC(c4ccccc4)C(F)(F)CN)ccc3Cl)c(=O)[nH]c2n1` (stereo not drawn) [Example 196, N-(5-(3-amino-2,2-difluoro-1-phenylpropylcarbamoyl)-2-chlorophenyl)-2-methoxy-7-oxo-7,8-dihydropyrido[2,3-d]pyrimidine-6-carboxamide], the IC50 on Human DYRK1B (setting [1]) came to 0.339 µM; at Human DYRK1A, 0.175 µM.

In turn, `COc1ncc2cc(C(=O)Nc3cc(C(=O)NC(CCCCN)c4ccccc4)ccc3Cl)c(=O)[nH]c2n1` (stereo not drawn) [Example 186, N-(5-(5-Amino-1-phenylpentylcarbamoyl)-2-chlorophenyl)-2-methoxy-7-oxo-7,8-dihydropyrido[2,3-d]pyrimidine-6-carboxamide] had an IC50 at Human DYRK1B (Enzyme IC50 (μM) DYRK1B) of 1.01 µM. Still for that read-out and setting: to `Cc1ncc2cc(C(=O)Nc3cc(C(=O)NC(CCN)c4ccccc4)ccc3Cl)c(=O)[nH]c2n1` (stereo not drawn) [Example 112, N-(5-(3-Amino-1-phenylpropylcarbamoyl)-2-chlorophenyl)-2-methyl-7-oxo-7,8-dihydropyrido[2,3-d]pyrimidine-6-carboxamide hydrochloride] belongs 0.018 µM; to `COc1ncc2cc(C(=O)Nc3cc(C(=O)N[C@@H](CCN)c4cccc(Cl)c4)ccc3Cl)c(=O)[nH]c2n1` [Example 136, 2-Methoxy-7-oxo-7,8-dihydro-pyrido[2,3-d]pyrimidine-6-carboxylic acid {5-[(S)-3-amino-1-(3-chloro-phenyl)-propylcarbamoyl]-2-chloro-phenyl}-amide], 2.55 µM. `COc1ncc2cc(C(=O)Nc3cc(C(=O)OCc4cccc(Cl)c4)ccc3Cl)c(=O)[nH]c2n1` [Example 53, 4-Chloro-3-[(2-methoxy-7-oxo-7,8-dihydro-pyrido[2,3-d]pyrimidine-6-carbonyl)-amino]-benzoic acid 3-chloro-benzyl ester]: at Human DYRK1B (setting [1]), the IC50 is greater than 10 µM. For the same molecule, the inhibition at 10 µM on Human DYRK1A (read-out: % inhibition of DYRK1A at 10 μM test compound concentration) turned out to be 32%. As to `COc1ncc2cc(C(=O)Nc3cc(C(=O)NCc4ccccn4)ccc3Cl)c(=O)[nH]c2n1` [Example 66, 2-Methoxy-7-oxo-7,8-dihydro-pyrido[2,3-d]pyrimidine-6-carboxylic acid {2-chloro-5-[(pyridin-2-ylmethyl)-carbamoyl]-phenyl}-amide], the IC50 worked out at 0.282 µM at Human DYRK1B (setting [1]) and 0.16 µM on Human DYRK1A. For `COC(=O)c1ccc(C)c(NC(=O)c2cc3cnc(N4CCOCC4)nc3[nH]c2=O)c1` [Example 29, 4-Methyl-3-[(2-morpholin-4-yl-7-oxo-7,8-dihydro-pyrido[2,3-d]pyrimidine-6-carbonyl)-amino]-benzoic acid methyl ester], the results for the IC50 at Human DYRK1B (setting [1]) and at Human DYRK1A were 0.12 µM and 0.0859 µM, respectively. For `COc1ncc2cc(C(=O)Nc3cc(C(=O)NCC(C)C)ccc3Cl)c(=O)[nH]c2n1` [Example 79, 2-Methoxy-7-oxo-7,8-dihydro-pyrido[2,3-d]pyrimidine-6-carboxylic acid (2-chloro-5-isobutylcarbamoyl-phenyl)-amide] the same measures were 1.52 µM and 0.779 µM. With `COc1ncc2cc(C(=O)Nc3cc(C(=O)NCc4ccc(Cl)cc4)ccc3Cl)c(=O)[nH]c2n1` [Example 46, 2-Methoxy-7-oxo-7,8-dihydro-pyrido[2,3-d]pyrimidine-6-carboxylic acid [2-chloro-5-(4-chloro-benzylcarbamoyl)-phenyl]-amide], the IC50 was 0.192 µM at Human DYRK1B (setting [1]) and 1.16 µM at Human DYRK1A. In the same order, the values of `COC(=O)c1ccc(Cl)c(NC(=O)c2cc3cnc(N4CCNCC4)nc3[nH]c2=O)c1` [Example 37, 4-Chloro-3-[(7-oxo-2-piperazin-1-yl-7,8-dihydro-pyrido[2,3-d]pyrimidine-6-carbonyl)-amino]-benzoic acid methyl ester] are 0.405 µM and 0.468 µM.

For `COc1ncc2cc(C(=O)Nc3cc(C(=O)NCc4cccnc4)ccc3Cl)c(=O)[nH]c2n1` [Example 67, 2-Methoxy-7-oxo-7,8-dihydro-pyrido[2,3-d]pyrimidine-6-carboxylic acid {2-chloro-5-[(pyridin-3-ylmethyl)-carbamoyl]-phenyl}-amide], the IC50 on Human DYRK1B (setting [1]) was 0.669 µM; on Human DYRK1A it was 0.263 µM.

In the case of `CCOC(=O)c1ccc(Cl)c(NC(=O)c2cc3cnc(OC)nc3[nH]c2=O)c1` [Example 82, 4-Chloro-3-[(2-methoxy-7-oxo-7,8-dihydro-pyrido[2,3-d]pyrimidine-6-carbonyl)-amino]-benzoic acid ethyl ester], the IC50 came out at 1.11 µM on Human DYRK1B (setting [1]) and 0.463 µM at Human DYRK1A. Take `C[C@H](NC(=O)c1ccc(Cl)c(NC(=O)c2cc3cnc(N4CCN(C)CC4)nc3[nH]c2=O)c1)c1ccccc1` [Example 173, 2-(4-Methyl-piperazin-1-yl)-7-oxo-7,8-dihydro-pyrido[2,3-d]pyrimidine-6-carboxylic acid [2-chloro-5-((S)-1-phenyl-ethylcarbamoyl)-phenyl]-amide]: the half-maximal inhibitory concentration (IC50) at Human DYRK1B (setting [1]) and on Human DYRK1A was greater than 10 µM throughout. In the case of `COc1ncc2cc(C(=O)Nc3cc(C(=O)N(C)C)ccc3Cl)c(=O)[nH]c2n1` [Example 55, 2-Methoxy-7-oxo-7,8-dihydro-pyrido[2,3-d]pyrimidine-6-carboxylic acid (2-chloro-5-dimethylcarbamoyl-phenyl)-amide], the values for the IC50 at Human DYRK1B (setting [1]) and at Human DYRK1A were 1.37 µM and 4.1 µM, respectively. Regarding `COc1ncc2cc(C(=O)Nc3cc(C(=O)NC(CCN)C4CCCCC4)ccc3Cl)c(=O)[nH]c2n1` (stereo not drawn) [Example 193, N-(5-(3-Amino-1-cyclohexylpropylcarbamoyl)-2-chlorophenyl)-2-methoxy-7-oxo-7,8-dihydropyrido[2,3-d]pyrimidine-6-carboxamide 2,2,2-trifluoroacetate], on Human DYRK1B (Enzyme IC50 (μM) DYRK1B), 0.615 µM corresponded to half-maximal inhibition (IC50).

At Human DYRK1B (Enzyme IC50 (μM) DYRK1B), `Cc1ncc2cc(C(=O)Nc3cc(C(=O)N[C@H](CCN)c4ccccc4)ccc3Cl)c(=O)[nH]c2n1` [Example 168, (R)—N-(5-(3-Amino-1-phenylpropylcarbamoyl)-2-chlorophenyl)-2-methyl-7-oxo-7,8-dihydropyrido[2,3-d]pyrimidine-6-carboxamide hydrochloride] returned an IC50 of less than 0.0046 µM. At Human DYRK1B (Enzyme IC50 (μM) DYRK1B), `COc1nc(C)c2cc(C(=O)Nc3cc(C(=O)NC(CCN)c4ccccc4)ccc3Cl)c(=O)[nH]c2n1` (stereo not drawn) [Example 169, N-(5-(3-Amino-1-phenylpropylcarbamoyl)-2-chlorophenyl)-2-methoxy-4-methyl-7-oxo-7,8-dihydropyrido[2,3-d]pyrimidine-6-carboxamide2,2,2-trifluoroacetate] returned an IC50 of 0.101 µM. On the same count and under the same terms, the value for `COc1ncc2cc(C(=O)Nc3cc(C(=O)N(C)Cc4cccc(Cl)c4)ccc3Cl)c(=O)[nH]c2n1` [Example 65, 2-Methoxy-7-oxo-7,8-dihydro-pyrido[2,3-d]pyrimidine-6-carboxylic acid {2-chloro-5-[(3-chloro-benzyl)-methyl-carbamoyl]-phenyl}-amide] was 0.586 µM; that for `CN1CCN(CCCNc2ncc3cc(C(=O)Nc4cc(C(=O)NC(CCN)c5ccccc5)ccc4Cl)c(=O)[nH]c3n2)CC1` (stereo not drawn) [Example 120, N-(5-(3-Amino-1-phenylpropylcarbamoyl)-2-chlorophenyl)-2-(3-(4-methylpiperazin-1-yl)propylamino)-7-oxo-7,8-dihydropyrido[2,3-d]pyrimidine-6-carboxamide] was less than 0.0046 µM; that for `COc1ncc2cc(C(=O)Nc3cc(C(=O)Nc4ccccc4)ccc3Cl)c(=O)[nH]c2n1` [Example 49, 2-Methoxy-7-oxo-7,8-dihydro-pyrido[2,3-d]pyrimidine-6-carboxylic acid (2-chloro-5-phenylcarbamoyl-phenyl)-amide] was 2.97 µM.
